From patent US8987212B2, “Oleanoyl peptide composition and method of treating skin aging” (priority 2007, dated 2015)
Where a SMILES comes first, the peptide text is derived from it. The star is where a group is joined. X1 = CC1(C)CC[C@]2(C(=O)*)CC[C@]3(C)C(=CCC4[C@@]5(C)CC[C@H](O)C(C)(C)C5CC[C@]43C)C2C1

Key:
Human osteosarcoma cells = test: Collagen enhancement by Sirius Red staining; format: cell-based; conditions: at 1.25 ppm, 48 hrs, vs untreated cells
Experimental: Collagen enhancement was determined by using Sirius Red stain that binds with a greater specificity to Collagen type I and Collagen type III of the extracellular matrix. The stain bound to the collagen is dissolved and the optical density (OD) is measured spectrophotometrically using a Fluostar optima microtiter plate reader at 544 nm. The OD of the stain bound to collagen is directly proportional to the collagen content in the cells.
Human osteosarcoma cells from human bone were used for collagen enhancement studies. The cells were seeded with a seeding density of 10000 cells per well of a 24 well plate. Confluent monolayers of cells were initially treated with varying non cytotoxic concentrations of Oleanoyl peptide and vehicle (control) in the culture medium. For each concentration, 4 replicates were maintained and the analysis was performed twice such that the ‘n’ value is 8. After sample treatment, the cells were incubated in a CO2 incubator for 48 hrs. The cells were then developed by Sirius red staining technique to analyze the collagen enhancement. The cells were washed extensively with PBS. The cells were fixed using Bouin's fluid containing 1.3% picric acid, 35% formaldehyde and glacial acetic acid in 15:5:1 ration by incubating with 1 ml of Bouin's fluid per well for 1 hr at RT. The fixative is then removed by suction with micropipette and the cells were washed under running tap water for 15 minutes. After air drying the culture plate, the cells were stained using 0.1% Sirius red stain in 1.3% picric acid. 1 ml per well Sirius red stain was added and the cells were incubated for 1 hr under mild shaking of 70 RPM at RT in Orbitek Shaker. The stain was then removed by suction and the cells were extensively washed with 0.01N HCl to remove unbound dye. The dye bound to collagen was then dissolved in 0.2 ml of 0.1N NaOH per well for 30 minutes under mild shaking of 70 RPM in Orbitek Shaker at RT. The dye was then transferred to 96 well microplate and the OD was read at 544 nm in Fluostar Optima microplate reader.
The percentage enhancement in collagen with respect to the untreated cells considering the OD of untreated cells as optimal under normal conditions is calculated as follows, % enhancement in […]=[(100/C)×T]−100 Where C=absorbance due to collagen in untreated cells
T=absorbance due to collagen in sample treated cells

[1] = DPPH free radical scavenging assay
Experimental: The DPPH assay is often used to evaluate the ability of antioxidants to scavenge free radicals which are known to be a major factor in biological damages caused by oxidative stress. This assay is known to give reliable information concerning the antioxidant ability of the tested compounds. The assay is based on the color change of the stable free radical DPPH from purple to yellow as the radical is quenched by the antioxidant.
The assay mixture tubes containing 1.5 ml of 0.1 mM DPPH methanolic solution and varying concentrations of the sample in a total volume of 3 ml were incubated at 37° C. for 30 minutes in a shaking water bath. The reduction in absorbance which is directly proportional to the radical scavenging is measured spectrophotometrically at 517 nm. […] The percentage of scavenging is calculated as follows, % scavenging=[(C−T)/C]×100 Where C=absorbance in the absence of inhibitor
T=absorbance in the presence of inhibitor

LTB4 = LTB4 inhibition (same procedure as TNF α); format: cell-based, human; conditions: at 0.625 μg/ml
Description: The above procedure is also followed for determining LTB4 inhibition by Oleanoyl peptide. From the results tabulated in table 1, it is clear that Oleanoyl peptide is a better TNF α and LTB4 inhibitor.

[2] = system: Interleukin-1beta (IL-1β); test: Extracellular IL-1β from LPS-challenged human neutrophils; format: cell-based; conditions: for % activity IL-1β expression against LPS control: ↓ = inhibition
Experimental: (§1) Experimental observations were made in human neutrophil that were challenged with LPS. […] Rolipram at 100 μg/ml dose level was used as a standard drug to observe the authenticity and reproducibility of the experimental design.

Interleukin-6 (IL-6) = test: Extracellular IL-6 from LPS-challenged human neutrophils; format: cell-based; conditions: for % activity IL-6 expression against LPS control: ↓ = inhibition
Experimental: as §1

Prostaglandin E2 (PGE2) = test: Extracellular PGE2 from LPS-challenged human neutrophils; format: cell-based; conditions: for % activity PGE2 expression against LPS control: ↓ = inhibition
Experimental: as §1
(§2) The Oleanoyl peptide was also screened for NO and PGE2 expression.

Nitric Oxide (NO) = test: Extracellular nitric oxide from LPS-challenged human neutrophils; format: cell-based; conditions: for % activity NO expression against LPS control: ↓ = inhibition
Experimental: as §1, §2

[3] = target: porcine pancreatic elastase (Sus scrofa, UniProt P00772); test: EnzChek Elastase Assay, elastase inhibitory potential
porcine pancreatic elastase, sequence (P00772 27-266): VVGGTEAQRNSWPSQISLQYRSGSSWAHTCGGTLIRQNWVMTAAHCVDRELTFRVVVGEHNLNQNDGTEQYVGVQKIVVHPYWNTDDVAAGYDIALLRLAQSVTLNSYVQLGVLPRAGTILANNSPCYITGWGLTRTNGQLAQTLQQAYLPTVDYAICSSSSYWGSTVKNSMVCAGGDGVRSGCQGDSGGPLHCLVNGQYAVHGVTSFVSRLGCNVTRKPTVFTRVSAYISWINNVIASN
Description: The EnzChek kit contains DQelastin, fluorescein conjugated soluble bovine neck ligament elastin. This substrate is efficiently digested by elastase to yield highly fluorescent peptides. […] Elastase used for the assay is purified from porcine pancreas.
T=absorbance due to elastase activity in the presence of inhibitor

[4] = test sample 2 μg/ml, listed as OP

SMILES: C[C@@H](O)[C@H](NC(=O)[C@H](CCCCN)NC(=O)[C@]12CCC(C)(C)CC1C1=CCC3[C@@]4(C)CC[C@H](O)C(C)(C)C4CC[C@@]3(C)[C@]1(C)CC2)C(=O)N[C@H](C(=O)N[C@@H](CCCCN)C(=O)N[C@@H](CO)C(=O)O)[C@@H](C)O (stereo partly drawn) [Oleanoyl peptide, Oleanoyl-Lys-Thr-Thr-Lys-Ser-OH] (X1-KTTKS-OH)
- enhancement in collagen (Human osteosarcoma cells): 17%
- Anti-oxidant activity by DPPH Method, % inhibition ([1]; at 300 μg/ml): 29% inhibition at 300
- Anti-oxidant activity by DPPH Method ([1]; result in words): shows DPPH scavenging activity
- LTB4 inhibition, % inhibition (LTB4): 26%
- Concentration of IL-1β produced (pg/ml) Mean ± S.E. ([2]; test sample 0.125 μg/ml): 130.79 ± 3.07 pg/mL
- Concentration of IL-1β produced (pg/ml) Mean ± S.E. ([2]; test sample 0.25 μg/ml): 119.44 ± 2.23 pg/mL
- Concentration of IL-1β produced (pg/ml) Mean ± S.E. ([2]; test sample 0.5 μg/ml): 109.72 ± 3.21 pg/mL
- Concentration of IL-1β produced (pg/ml) Mean ± S.E. ([2]; test sample 1 μg/ml): 96.61 ± 3.63 pg/mL
- Concentration of IL-1β produced (pg/ml) Mean ± S.E. ([2]; test sample 2 μg/ml): 102.08 ± 2.61 pg/mL
- Concentration of IL-1β produced (pg/ml) Mean ± S.E. ([2]; test sample 4 μg/ml): 100.45 ± 3.78 pg/mL
- % activity IL-1β expression against LPS control ([2]; test sample 0.125 μg/ml): 6.29↓ %
- % activity IL-1β expression against LPS control ([2]; test sample 0.25 μg/ml): 14.42↓ %
- % activity IL-1β expression against LPS control ([2]; test sample 0.5 μg/ml): 21.39↓ %
- % activity IL-1β expression against LPS control ([2]; test sample 1 μg/ml): 31.78%
- % activity IL-1β expression against LPS control ([2]; test sample 1 μg/ml, listed as OP): 30.78↓ %
- % activity IL-1β expression against LPS control ([2]; test sample 2 μg/ml): 26.86↓ %
- % activity IL-1β expression against LPS control ([2]; test sample 4 μg/ml): 28.03↓ %
- Concentration of IL-6 produced (pg/ml) Mean ± S.E. (Interleukin-6 (IL-6); test sample 0.125 μg/ml): 130.38 ± 2.11 pg/mL
- Concentration of IL-6 produced (pg/ml) Mean ± S.E. (Interleukin-6 (IL-6); test sample 0.25 μg/ml): 123.92 ± 2.09 pg/mL
- Concentration of IL-6 produced (pg/ml) Mean ± S.E. (Interleukin-6 (IL-6); test sample 0.5 μg/ml): 117.23 ± 2.84 pg/mL
- Concentration of IL-6 produced (pg/ml) Mean ± S.E. (Interleukin-6 (IL-6); test sample 1 μg/ml): 106.81 ± 3.79 pg/mL
- Concentration of IL-6 produced (pg/ml) Mean ± S.E. (Interleukin-6 (IL-6); test sample 2 μg/ml): 104.75 ± 5.31 pg/mL
- Concentration of IL-6 produced (pg/ml) Mean ± S.E. (Interleukin-6 (IL-6); test sample 4 μg/ml): 101.11 ± 2.87 pg/mL
- % activity IL-6 expression against LPS control (Interleukin-6 (IL-6); test sample 0.125 μg/ml): 8.33↓ %
- % activity IL-6 expression against LPS control (Interleukin-6 (IL-6); test sample 0.25 μg/ml): 12.87↓ %
- % activity IL-6 expression against LPS control (Interleukin-6 (IL-6); test sample 0.5 μg/ml): 17.58↓ %
- % activity IL-6 expression against LPS control (Interleukin-6 (IL-6); test sample 1 μg/ml): 24.90↓ %
- % activity IL-6 expression against LPS control (Interleukin-6 (IL-6); test sample 2 μg/ml): 26.35↓ %
- % activity IL-6 expression against LPS control (Interleukin-6 (IL-6); test sample 4 μg/ml): 28.03%
- % activity IL-6 expression against LPS control (Interleukin-6 (IL-6); test sample 4 μg/ml, listed as OP): 28.91↓ %
- Concentration of PGE2 produced (pg/ml) Mean ± S.E. (Prostaglandin E2 (PGE2); test sample 0.125 μg/ml): 573.82 ± 6.08 pg/mL
- Concentration of PGE2 produced (pg/ml) Mean ± S.E. (Prostaglandin E2 (PGE2); test sample 0.25 μg/ml): 501.64 ± 7.56 pg/mL
- Concentration of PGE2 produced (pg/ml) Mean ± S.E. (Prostaglandin E2 (PGE2); test sample 0.5 μg/ml): 468.31 ± 6.41 pg/mL
- Concentration of PGE2 produced (pg/ml) Mean ± S.E. (Prostaglandin E2 (PGE2); test sample 1 μg/ml): 419.53 ± 5.07 pg/mL
- Concentration of PGE2 produced (pg/ml) Mean ± S.E. (Prostaglandin E2 (PGE2); test sample 2 μg/ml): 384.44 ± 8.02 pg/mL
- Concentration of PGE2 produced (pg/ml) Mean ± S.E. (Prostaglandin E2 (PGE2); test sample 4 μg/ml): 395.81 ± 4.68 pg/mL
- % activity PGE2 expression against LPS control (Prostaglandin E2 (PGE2); test sample 0.125 μg/ml): 25.37↓ %
- % activity PGE2 expression against LPS control (Prostaglandin E2 (PGE2); test sample 0.25 μg/ml): 34.76↓ %
- % activity PGE2 expression against LPS control (Prostaglandin E2 (PGE2); test sample 0.5 μg/ml): 39.09↓ %
- % activity PGE2 expression against LPS control (Prostaglandin E2 (PGE2); test sample 1 μg/ml): 45.44↓ %
- % activity PGE2 expression against LPS control (Prostaglandin E2 (PGE2); test sample 2 μg/ml): 50.00%
- % activity PGE2 expression against LPS control (Prostaglandin E2 (PGE2); [4]): 50.00↓ %
- % activity PGE2 expression against LPS control (Prostaglandin E2 (PGE2); test sample 4 μg/ml): 48.52↓ %
- Concentration of NO produced (μmol/ml) Mean ± S.E. (Nitric Oxide (NO); test sample 0.125 μg/ml): 42.77 ± 1.42 µmol/mL
- Concentration of NO produced (μmol/ml) Mean ± S.E. (Nitric Oxide (NO); test sample 0.25 μg/ml): 41.21 ± 1.05 µmol/mL
- Concentration of NO produced (μmol/ml) Mean ± S.E. (Nitric Oxide (NO); test sample 0.5 μg/ml): 39.25 ± 1.08 µmol/mL
- Concentration of NO produced (μmol/ml) Mean ± S.E. (Nitric Oxide (NO); test sample 1 μg/ml): 34.12 ± 2.00 µmol/mL
- Concentration of NO produced (μmol/ml) Mean ± S.E. (Nitric Oxide (NO); test sample 2 μg/ml): 30.21 ± 1.18 µmol/mL
- % activity NO expression against LPS control (Nitric Oxide (NO); test sample 0.125 μg/ml): 3.51↓ %
- % activity NO expression against LPS control (Nitric Oxide (NO); test sample 0.25 μg/ml): 7.03↓ %
- % activity NO expression against LPS control (Nitric Oxide (NO); test sample 0.5 μg/ml): 11.45↓ %
- % activity NO expression against LPS control (Nitric Oxide (NO); test sample 1 μg/ml): 23.03↓ %
- % activity NO expression against LPS control (Nitric Oxide (NO); test sample 2 μg/ml): 31.85%
- % activity NO expression against LPS control (Nitric Oxide (NO); [4]): 31.85↓ %
- % activity NO expression against LPS control (Nitric Oxide (NO); test sample 4 μg/ml): 29.66↓ %
- IC50 [3]: 143 µM
